In patent US20220160659A1, “PHARMACEUTICAL COMPOSITION COMPRISING a-GALACTOSYLCERAMIDE AND/OR DENDRITIC CELLS PULSED WITH a-GALACTOSYLCERAMIDE” (National University Corporation Hokkaido University, priority 2019, published 2022):

Legend:
[1] = system: pediatric cancer patient having drug-induced myocardial dysfunction caused by an anthracycline anticancer drug; conditions: cited from earlier work
[2] = system: early breast cancer patient treated with an anthracycline anticancer drug; conditions: cited from earlier work
[3] = system: myocardial dysfunction model mice induced by doxorubicin; assay: Echocardiography (left ventricular fractional shortening) after α-GalCer in doxorubicin myocardial dysfunction model; assay type: in vivo, C57BL/6 mice; conditions: α-GalCer 0.1 μg/g i.p. 4 days before and 3 days after doxorubicin 20 mg/kg i.p.; echocardiography 14 days after DOX; vs DOX group; FIG. 2
Experimental: (§1) Eight-week-old male C57BL/6 mice were divided into three groups (Control group, DOX group, and DOX+α-GC group). α-GalCer (KRN7000 (Funakoshi Co., Ltd.); 0.1 μg/g weight) was intraperitoneally administered to the DOX+α-GC group, while PBS was intraperitoneally administered to the Control group and the DOX group. Four days after the administration, doxorubicin (Doxorubicin hydrochloride, D1515 (SIGMA-ALDRICH); 20 mg/kg weight) was intraperitoneally administered to the DOX group and the DOX+α-GC group, while Vehicle (PBS) was intraperitoneally administered to the Control group. Three days after the administration of DOX or PBS, α-GalCer (0.1 μg/g weight) was intraperitoneally administered to the DOX+α-GC group, while PBS was intraperitoneally administered to the Control group and the DOX group. Fourteen days after the administration of DOX or PBS, echocardiography was performed for mice of each of the groups to evaluate their cardiac functions, and subsequently, the hearts of the mice were collected to perform pathological evaluation of myocardial tissue fibrosis and evaluation of inflammatory cytokine expression by using a quantitative real-time RT-PCR method. FIG. 1 illustrates the test schedules.
The echocardiography was carried out by using an ultrasound recording device EUB-8000 (Hitachi, Ltd.) under anesthesia with pentobarbital. […]

[4] = system: myocardial dysfunction model mice induced by doxorubicin; assay: Myocardial tissue fibrosis, Picro-sirius Red staining, after α-GalCer; assay type: in vivo, C57BL/6 mice; conditions: α-GalCer 0.1 μg/g i.p. before and after doxorubicin 20 mg/kg; heart collected 14 days after DOX; vs DOX group; FIG. 3
Experimental: as §1, with “Three days after the administration of DOX or PBS, α-GalCer (0.1 μg/g weight) was intraperitoneally administered to the DOX+α-GC group, while PBS was intraperitoneally administered to the Control group and the DOX group.” left out, “FIG. 1 illustrates the test schedules.” left out
Myocardial tissue fibrosis was evaluated by fixing a frozen section sample of myocardial tissue with 10% formalin and then staining the sample with 3% Picro-sirius Red (100 ml of Van Gieson Solution P (FUJIFILM Wako Pure Chemical Corporation)+3 ml of 1% Sirius Red (MUTO PURE CHEMICALS CO., LTD.)) to detect collagen. […]

[5] = system: inflammatory cytokine expression in myocardial tissues; assay: Inflammatory cytokine gene expression in myocardial tissue, quantitative real-time RT-PCR; assay type: in vivo, C57BL/6 mice; conditions: 14 days after DOX
Experimental: as §1
Furthermore, total RNA was extracted from myocardial tissues using QuickGene-810 (FUJIFILM Corporation), and subjected to a reverse transcription reaction using a cDNA reverse transcription kit (Applied Biosystems) to prepare cDNA. Using this cDNA as a template, a quantitative real-time RT-PCR was performed by the TaqMan method to evaluate the expression of inflammatory cytokine. Primer sets and probes used (all of them from Applied Biosystems) were as follows. GAPDH was used as an endogenous control. • IFN-γ: TaqMan Gene Expression Assays, Mm01168134 ml • TNF-α: TaqMan Gene Expression Assays, Mm00443258 ml • IL-1β: TaqMan Gene Expression Assays, Mm00434228 ml • TGF-β1: TaqMan Gene Expression Assays, Mm01178820 ml • IL-4: TaqMan Gene Expression Assays, Mm00445259 ml • IL-10: TaqMan Gene Expression Assays, Mm01288386 ml • GAPDH: Mouse GAPD (20X), Probe dye VIC-MGB

[6] = system: activated, M1 and M2 macrophage markers in myocardial tissues; assay: Macrophage marker gene expression in myocardial tissue, quantitative real-time RT-PCR; assay type: in vivo, C57BL/6 mice; conditions: 14 days after DOX, FIG. 6
Experimental: Eight-week-old male C57BL/6 mice were divided into three groups (Control group, DOX group, and DOX+α-GC group). α-GalCer (KRN7000 (Funakoshi Co., Ltd.); 0.1 μg/g weight) was intraperitoneally administered to the DOX+α-GC group, while PBS was intraperitoneally administered to the Control group and the DOX group. Four days after the administration, doxorubicin (Doxorubicin hydrochloride, D1515 (SIGMA-ALDRICH); 20 mg/kg weight) was intraperitoneally administered to the DOX group and the DOX+α-GC group, while Vehicle (PBS) was intraperitoneally administered to the Control group. Three days after the administration of DOX or PBS, α-GalCer (0.1 μg/g weight) was intraperitoneally administered to the DOX+α-GC group, while PBS was intraperitoneally administered to the Control group and the DOX group. Fourteen days after the administration of DOX or PBS, echocardiography was performed for mice of each of the groups to evaluate their cardiac functions, and subsequently, the hearts of the mice were collected to perform pathological evaluation of myocardial tissue fibrosis and evaluation of inflammatory cytokine expression by using a quantitative real-time RT-PCR method. FIG. 1 illustrates the test schedules. Furthermore, using the above-mentioned cDNA as a template, a quantitative real-time RT-PCR was performed by the TaqMan method using the following primer sets and probes (all of them from Applied Biosystems) to evaluate the expression of CD11c and MHC II (activated macrophage markers), MCP-1, iNOS, and IL-1β (M1 macrophage markers), and […] and Arginase 1 (Arg1) (M2 macrophage markers). GAPDH was used as an endogenous control. • CD11c: TaqMan Gene Expression Assays, Mm00498701 ml • MHC II (H2-A1): TaqMan Gene Expression Assays, Mm00439211 ml • MCP1 (CCL2): TaqMan Gene Expression Assays, Mm00441242 ml • iNOS (NOS2): TaqMan Gene Expression Assays, Mm00440502 ml • IL-1β: TaqMan Gene Expression Assays, Mm00434228 ml • […]: TaqMan Gene Expression Assays, Mm00445109 ml • Arg1: TaqMan Gene Expression Assays, Mm00475988 ml • GAPDH: Mouse GAPD (20X), Probe dye VIC-MGB

[7] = system: post-myocardial infarction heart failure; conditions: ischemic heart failure; earlier work of the inventors; cited from earlier work
[8] = comparison between the three groups

CCOC(=O)[C@H](CCc1ccccc1)N[C@@H](C)C(=O)N1CCC[C@H]1C(=O)O [enalapril]
left ventricular end-systolic wall stress [1]: reduced a left ventricular end-systolic wall stress
other important parameters reflecting a motor ability and the like [1]: failed to improve other important parameters reflecting a motor ability and the like

COCCc1ccc(OCC(O)CNC(C)C)cc1 (stereo not shown) [metoprolol]
decrease in left ventricular ejection fraction [2]: did not prevent the decrease in left ventricular ejection fraction

CCCCCCCCCCCCCCCCCCCCCCCCCC(=O)N[C@@H](CO[C@H]1O[C@H](CO)[C@H](O)[C@H](O)[C@H]1O)[C@H](O)[C@H](O)CCCCCCCCCCCCCC [α-GalCer, α-galactosylceramide]
cardiac function, left ventricular fractional shortening (% FS) [3]: did not show the decrease in cardiac function as observed in the DOX group
myocardial tissue fibrosis (ratio of stained area) [4]: the progression as observed in the DOX group was significantly suppressed
expression of IFN-γ in myocardial tissue ([5]; DOX+α-GC group vs Control and DOX groups, FIG. 5): tended to be more enhanced in the DOX+α-GC group than in other groups
expression of interleukin-4 (IL-4) in myocardial tissue ([5]; DOX+α-GC group vs Control and DOX groups, GAPDH endogenous control, FIG. 4, FIG. 5): tended to be more enhanced in the DOX+α-GC group than in other groups
expression of other cytokines such as IL-10 in myocardial tissue ([5]; comparison between Control, DOX and DOX+α-GC groups, FIG. 5): any significant difference in the expression of other cytokines such as IL-10 between the three groups was not observed
expression of Arg1 (M2 macrophage marker) in myocardial tissue ([6]; DOX+α-GC group vs other groups): more enhanced in the DOX+α-GC group than in other groups
expression of CD11c (activated macrophage marker) in myocardial tissue ([6]; DOX+α-GC group vs other groups): more enhanced in the DOX+α-GC group than in other groups
expression of MHC II (activated macrophage marker) in myocardial tissue ([6]; DOX+α-GC group vs other groups): more enhanced in the DOX+α-GC group than in other groups
expression of Retnla (M2 macrophage marker) in myocardial tissue ([6]; DOX+α-GC group vs other groups): more enhanced in the DOX+α-GC group than in other groups
expression of IL-1β (M1 macrophage marker) in myocardial tissue [6, 8]: any significant difference in the expression of MCP-1, iNOS, and IL-1β as M1 macrophage markers between the three groups was not observed
expression of MCP-1 (M1 macrophage marker) in myocardial tissue [6, 8]: any significant difference in the expression of MCP-1, iNOS, and IL-1β as M1 macrophage markers between the three groups was not observed
expression of iNOS (M1 macrophage marker) in myocardial tissue [6, 8]: any significant difference in the expression of MCP-1, iNOS, and IL-1β as M1 macrophage markers between the three groups was not observed
therapeutic effect on post-myocardial infarction heart failure [7]: confirmed therapeutic effects
